Patent US20250090659A1, “COMBINATION THERAPY WITH AN ANTI-CD19 ANTIBODY AND PARSACLISIB” (Incyte Corporation, priority 2020, published 2025)

B1: Tafasitamab: IgG1-G2/kappa Fc-engineered (S239D, I332E) monoclonal antibody targeting human CD19; heavy chain SEQ ID NO:2, light chain SEQ ID NO:3 (antibody)
heavy: EVQLVESGGGLVKPGGSLKLSCAASGYTFTSYVMHWVRQAPGKGLEWIGYINPYNDGTKYNEKFQGRVTISSDKSISTAYMELSSLRSEDTAMYYCARGTYYYGTRVFDYWGQGTLVTVSSASTKGPSVFPLAPSSKSTSGGTAALGCLVKDYFPEPVTVSWNSGALTSGVHTFPAVLQSSGLYSLSSVVTVPSSSLGTQTYICNVNHKPSNTKVDKKVEPKSCDKTHTCPPCPAPELLGGPDVFLFPPKPKDTLMISRTPEVTCVVVDVSHEDPEVQFNWYVDGVEVHNAKTKPREEQFNSTFRVVSVLTVVHQDWLNGKEYKCKVSNKALPAPEEKTISKTKGQPREPQVYTLPPSREEMTKNQVSLTCLVKGFYPSDIAVEWESNGQPENNYKTTPPMLDSDGSFFLYSKLTVDKSRWQQGNVFSCSVMHEALHNHYTQKSLSLSPGK
light: DIVMTQSPATLSLSPGERATLSCRSSKSLQNVNGNTYLYWFQQKPGQSPQLLIYRMSNLNSGVPDRFSGSGSGTEFTLTISSLEPEDFAVYYCMQHLEYPITFGAGTKLEIKRTVAAPSVFIFPPSDEQLKSGTASVVCLLNNFYPREAKVQWKVDNALQSGNSQESVTEQDSKDSTYSLSSTLTLSKADYEKHKVYACEVTHQGLSSPVTKSFNRGEC

How the values were obtained:
Pfeiffer cells = experiment: Cell proliferation (Cell titer Glo), Pfeiffer; type: cell-based; settings: no NK cells, 24, 48 and 72 hours
Description: (§1) Besides ADCC cytotoxicity, effects of tafasitamab and parsaclisib on cell proliferation were also evaluated by treating target cells with matrix dosing of tafasitamab and parsaclisib in the absence of NK cells. After 24 hours, 48 hours, and 72 hours, proliferation was assessed by adding 100 ul of Cell titer Glo to wells containing 100 ul of treated cells in duplicates. The data was presented as RLUs, which is in proportion to cell proliferation.

WSU-NHL cells = experiment: Cell proliferation (Cell titer Glo), WSU-NHL; type: cell-based; settings: no NK cells, 24, 48 and 72 hours
Description: as §1

SuDHL4 cells = experiment: Cell proliferation (Cell titer Glo), SuDHL4; type: cell-based; settings: no NK cells, 24, 48 and 72 hours
Description: as §1

SuDHL6 cells = experiment: Cell proliferation (Cell titer Glo), SuDHL6; type: cell-based; settings: no NK cells, 24, 48 and 72 hours
Description: as §1

[1] = test system: A20 murine lymphoma cells; experiment: In vivo efficacy in A20 mouse lymphoma model; set-up: species or system Balb/c mice
Description: Female Balb/c mice were subcutaneously inoculated with 5×10^5 A20 murine lymphoma cells to form flank tumors. When tumors reached approximately 100 mm^3, mice were randomized into 4 groups for dosing (N=10 mice/group). Dosing groups were as follows: (1) Vehicle (5% dimethyl acetimde+95% methylcellulose)-administered by mouth twice a day; (2) Murine anti-CD19 antibody (12014B35 from Absolute Antibody)—[…] administered intraperitoneally once weekly; (3) Parsaclisib (INCB050465)—3 mg/kg administered by mouth twice a day; and (4) Murine anti-CD19 antibody+Parsaclisib.
Tumor volumes were measured twice weekly. The study concluded when mean tumor volumes of each group reached 2000 mm^3. All doses were tolerated as assessed by body weights. Percent tumor growth inhibition (TGI %) was calculated by: [1-(mean tumor volume of test group)/(mean tumor volume of vehicle group)]×100. Tumor growth delay (TGD) was determined by the number of days needed (approximate) after dosing ceases for mean tumor volumes of dosed groups to reach the final mean tumor volume of the vehicle group.

Mec1 cells = experiment: ADCC assay with NK cells, Mec1 target cells; type: cell-based; settings: Mec1 cells pre-treated 7 days with parsaclisib 0.3 to 20 μM or DMSO, E:T 2:1, tafasitamab 1:10 dilutions from 1 μg/ml, 4 hours, dead target cells by flow cytometry
Description: (§2) The cytotoxicity of tafasitamab and parsaclisib (INCB050465) alone and in combination was tested in the following cells lines: MEC-1 (CLL), MEC-2 (CLL), JVM-2 (Mantle Cell Lymphoma), WSU-NHL, Pfeiffer, Su-DHL4, and Su-DHL6.
(§3) Target cells were pre-treated for 7 days with various doses of parsaclisib in the range of 0.3 to 20 μM (parsaclisib alone group and tafasitamab and parsaclisib combination group). The tafasitamab alone group was pre-treated with DMSO for the same period of time.
NK cells were isolated from human primary PBMC from multiple donors using EasySep™ Human NK Cell Isolation Kit (STEMCELL Technologies) and frozen. NK cells were thawed and cultured overnight in medium supplemented with 2 IU/ml of IL-2 (Peprotech) 24 hours before the ADCC assay.
The following controls were used in all experiments: (i) Target cells+NK cells without antibodies; (ii) Target cells+NK cells+huIgG1 isotype control antibody; and (iii) Target cells alone. […]
(§4) The cytotoxicity of tafasitamab alone was evaluated following the same procedure in cells that were treated with DMSO. […] After 4 hours incubation, cells were stained with Zombie Violet fixable cell viability dye (Biolegend 423114) and measured by flow cytometry to evaluate cell toxicity. […]

JVM2 cells [2] = experiment: ADCC assay with NK cells, JVM2 target cells; type: cell-based; settings: JVM2 cells pre-treated 7 days with parsaclisib 0.3 to 20 μM or DMSO, E:T 2:1, tafasitamab 1:10 dilutions from 1 μg/ml, 4 hours, dead target cells by flow cytometry
Description: as §2, §3
NK cells were isolated from human primary PBMC from multiple donors using EasySep™ Human NK Cell Isolation Kit (STEMCELL Technologies) and frozen. NK cells were thawed and cultured overnight in medium supplemented with 2 IU/ml of IL-2 (Peprotech) 24 hours before the ADCC assay. […]
as §4
Data from two separately conducted experiments were analyzed to assess potential synergistic activity of tafasitamab and parsaclisib in JVM2 cells. […] Synergy scores were calculated using SynergyFinder 2.0 (https://synergyfinder.fimm.fi). […]

Mec2 cells = experiment: Cell proliferation (Cell titer Glo), Mec2; type: cell-based; settings: no NK cells, 24, 48 and 72 hours
Description: as §1

JVM2 cells [3] = experiment: Cell proliferation (Cell titer Glo), JVM2; type: cell-based; settings: no NK cells, 24, 48 and 72 hours
Description: as §1

| Molecule | cell proliferation (RLUs) (Pfeiffer cells) | cell proliferation (RLUs) (WSU-NHL cells) | cell proliferation (RLUs) (SuDHL4 cells) | cell proliferation (RLUs) (SuDHL6 cells) | TGI (%) ([1]; A20 flank tumors in Balb/c mice, antibody 150 mg i.p. once weekly, parsaclisib 3 mg/kg by mouth twice a day, vs vehicle group) | TGD ([1]; approximate days after dosing ceases for mean tumor volume to reach final mean tumor volume of vehicle group) | ADCC activity (Mec1 cells) | ADCC activity (JVM2 cells [2]) | cell proliferation (RLUs) (Mec2 cells) | cell proliferation (RLUs) (JVM2 cells [3]) |
| --- | --- | --- | --- | --- | --- | --- | --- | --- | --- | --- |
| CCOc1c(C(C)n2nc(C)c3c(N)ncnc32)cc(Cl)c(F)c1C1CNC(=O)C1 (stereo not drawn) [Parsaclisib, 4-{3-[1-(4-amino-3-methyl-1H-pyrazolo[3,4-d]pyrimidin-1-yl)ethyl]-5-chloro-2-ethoxy-6-fluorophenyl}pyrrolidin-2-one] | proliferation was inhibited by the treatment of parsaclisib in time and dose dependent manners | proliferation was inhibited by the treatment of parsaclisib in time and dose dependent manners | showed sensitivity to neither | showed sensitivity to neither | 26.6% | 1.4 days | – | – | – | – |
| B1 | – | – | showed sensitivity to neither | showed sensitivity to neither | – | – | displayed ADCC activity in a dose dependent manner | displayed ADCC activity in a dose dependent manner | proliferation was inhibited by tafasitamab in time and dose dependent manners | proliferation was inhibited by tafasitamab in time and dose dependent manners |
